Assay results from patent US20080249075A1, “C11 Modified Retrosteroids as Progesterone Receptor Modulator Compounds” (Solvay Pharmaceuticals GmbH, priority 2007, published 2008).

How the values were obtained:
[1] = target: T1, human progesterone receptor (Homo sapiens, UniProt P06401); experiment: Progesterone receptor binding assay, human PR (CEREP); details: 3H-R5020 as ligand, MCF7 cells as source of PR; for Ki: read-out: Human PR binding (pKi) (converted)
T1 sequence (P06401 679-933 limits assumed): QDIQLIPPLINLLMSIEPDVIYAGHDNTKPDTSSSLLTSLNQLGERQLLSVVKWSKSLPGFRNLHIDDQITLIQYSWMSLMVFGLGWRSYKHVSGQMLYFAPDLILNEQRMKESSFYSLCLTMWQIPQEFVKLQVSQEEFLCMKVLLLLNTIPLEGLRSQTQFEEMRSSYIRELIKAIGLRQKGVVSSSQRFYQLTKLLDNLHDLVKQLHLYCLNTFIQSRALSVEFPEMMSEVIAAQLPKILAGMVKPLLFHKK
Experimental: The progesterone receptor (PR) binding assays were performed at CEREP (Celle I'Evescault, France).
The binding to the human progesterone receptor (Assay Cat No: Progesterone receptor-814h) was be measured using 3H-R5020 as ligand and MCF7 cells as the source of progesterone receptor. The assay is performed as described by Eckert & Katzenellenbogen [1982]. The binding to the bovine progesterone receptor (Assay Cat No: Progesterone receptor-814) was measured using 3H-R5020 as ligand and uterus tissue as the source of progesterone receptor. The assay was performed as described by Hurd & Moudgil [1988].
The results of the receptor binding assay are presented as the individual pKi values, which were determined by measuring the binding activity to the human or bovine PR, as indicated, for a concentration range of each compound.

[2] = system: T47D human breast carcinoma cells; experiment: cells; assay type: cell-based; details: for activation at 0.1 µM: 48 h, read-out: PS [100 nM] (% stimulation); for inhibition at 0.1 µM: read-out: PI [100 nM] (% inhibition); for IC50: read-out: pIC50 (converted); for PS [100 nM] (% stimulation): agonistic mode, alkaline phosphatase induction (100% = 1 nM Dydrogesterone); for PS [100 nM] (% stimulation) / PI [100 nM] (% inhibition): compound 100 nM; for PI [100 nM] (% inhibition): antagonistic mode, inhibition of alkaline phosphatase induction by 1 nM Dydrogesterone; for pIC50: antagonistic potency against 1 nM Dydrogesterone
Experimental: The progesterone-dependent modulation of alkaline phosphatase expression was examined using T47D human breast carcinoma cells [Keydar et al., 1979]. The assay was performed as previously described by Di Lorenzo et al. (1991) with the modification of using Dydrogesterone as comparative progestin to determine the antagonistic and agonistic activity.
The cell line was purchased from CLS Cell Lines Service (Hildastrasse 21, D-69214 Eppelheim, Germany). In brief, the cells were plated in 96-well plates at 40,000 cells/well using the following growth medium: RPMI 1640 with: 10% FBS, 1 mM Sodium Pyruvat MEM, 10 mM Hepes, 0.01 mg/ml Bovine insulin, and 25 μg/ml Gentamycin. After 24 h of cultivation, the growth medium was replaced with medium containing 2% fetal bovine serum and the test compounds were added to each well to achieve the appropriate compound concentration: For determination of agonistic activity only the test compounds were added; for measurement of antagonistic activity the test compounds and additionally Dydrogesterone as standard progesterone agonist was added to a final concentration of 1 nM. After 48 h of cultivation, the medium was removed and the cells were washed with 200 μl of Dulbecco's phosphate-buffered saline without calcium and magnesium (PBS(−)). Then the cells were fixed with 3.7% formaldehyde in phosphate-buffered saline for 15 min at 22° C. After washing the cells with PBS, 100 μl of a […] (pNPP) solution (pNPP Liquid Substrate System; Sigma) was added to each well and incubated for 2 h at room temperature protected from light. The reaction was stopped with 100 μl 1N NaOH and the absorbance was measured with a spectrophotometer (Victor, Perkin Elmer) at 405 nm. The results are expressed as alkaline phosphatase induction (as 100% with 1 nM Dydrogesterone) or inhibition (against alkaline phosphatase induction by 1 nM Dydrogesterone) at a certain concentration of test compound.
% stimulation=(effect compound−basal)/(effect dydro 1 nM−basal)*100% inhibition of 1 nM Dydro=100*{1-[(effect compound−basal)/(effect dydro 1 nM−basal)]}
For each compound the % inhibition (PI) and % stimulation (PS), respectively, at a compound concentration of 100 nM was determined. For selected compounds, the corresponding values were measured for several different concentrations, and subsequently were plotted against the concentration of the test compound, and used to calculate the IC50 value (for the antagonistic potency; the IC50 value is the concentration (nM), required to reduce the maximal response by 50%) and EC50 values (for the agonistic potency; the EC50 value is the effective concentration (nM) that produced 50% of the maximum response), respectively.

For `COc1cc(NC(=O)O[C@H]2C[C@]3(C)[C@@H](C(C)=O)CC[C@H]3[C@@H]3C=CC4=CC(=O)CC[C@@]4(C)[C@@H]32)cc(OC)c1OC` [Compound No. 24, (3,4,5-Trimethoxy-phenyl)-carbamic acid dydrogesterone-11β-yl ester], the Ki [1] was 200 nM, the activation at 0.1 µM ([2]; Homo sapiens, T47D) was 0% and the inhibition at 0.1 µM ([2]; Homo sapiens, T47D) was 88%. For the same compound, the IC50 ([2]; Homo sapiens, T47D) was 50.1 nM.
For `CC(=O)c1cccc(NC(=O)OC2C[C@]3(C)[C@@H](C(C)=O)CC[C@H]3[C@@H]3C=CC4=CC(=O)CC[C@]4(C)[C@@H]23)c1` (stereo partly drawn) [compound 81, (3-Acetyl-phenyl)-carbamic aciddydrogesterone-11-yl ester], the “Human PR binding (pKi)” value [1] was 6.6, the “PS [100 nM] (% stimulation)” value ([2]; T47D cells) was 1.0% and the “PI [100 nM] (% inhibition)” value ([2]; T47D cells) was 72.0%. The pIC50 ([2]; T47D cells) was 7.3.
In the case of `COc1ccccc1N1CCN(C(=O)O[C@H]2C[C@]3(C)[C@@H](C(C)=O)CC[C@H]3[C@@H]3C=CC4=CC(=O)CC[C@@]4(C)[C@@H]32)CC1` [compound 43, 4-(2-Methoxy-phenyl)-piperazine-1-carboxylic aciddydrogesterone-11-yl ester], the Ki [1] is reported as ≥ 631 nM.
Work on `CC(=O)[C@H]1CC[C@H]2[C@@H]3C=CC4=CC(=O)CC[C@@]4(C)[C@@H]3[C@@H](OC(=O)Nc3ccc(F)c(C#N)c3)C[C@]12C` [compound 85, (3-Cyano-4-fluoro-phenyl)-carbamic acid dydrogesterone-11-yl ester] yielded a Ki [1] of 501 nM.
In the case of `CC(=O)[C@H]1CC[C@H]2[C@@H]3C=CC4=CC(=O)CC[C@@]4(C)[C@@H]3[C@@H](OC(=O)Nc3cnc4ccccc4c3)C[C@]12C` [compound 51, Quinolin-3-yl-carbamic aciddydrogesterone-11-yl ester], the Ki [1] is reported as 398 nM, the activation at 0.1 µM ([2]; Homo sapiens, T47D) is reported as 5% and the inhibition at 0.1 µM ([2]; Homo sapiens, T47D) is reported as 59%. For the same compound, the IC50 ([2]; Homo sapiens, T47D) was 100 nM.
With `CC(=O)[C@H]1CC[C@H]2[C@@H]3C=CC4=CC(=O)CC[C@@]4(C)[C@@H]3C(OC(=O)Nc3ccc4c(c3)NC(=O)C(C)S4)C[C@]12C` (stereo partly drawn) [compound 102, (2-Methyl-3-oxo-3,4-dihydro-2H-benzo[1,4]thiazin-6-yl)-carbamic acid dydrogesterone-11-yl ester] the “Human PR binding (pKi)” value [1] was 6.3, the “PS [100 nM] (% stimulation)” value ([2]; T47D cells) was 0.0% and the “PI [100 nM] (% inhibition)” value ([2]; T47D cells) was 98.0%. It also gave a pIC50 ([2]; T47D cells) of 8.1.
`CC(=O)[C@H]1CC[C@H]2[C@@H]3C=CC4=CC(=O)CC[C@@]4(C)[C@@H]3[C@@H](OC(=O)Nc3ccc4c(c3)N(C)C(=O)CO4)C[C@]12C` [compound 101, (4-Methyl-3-oxo-3,4-dihydro-2H-benzo[1,4]oxazin-6-yl)-carbamic acid dydrogesterone-11-yl ester] was tested, and the Ki [1] was 316 nM, the activation at 0.1 µM ([2]; Homo sapiens, T47D) was 0% and the inhibition at 0.1 µM ([2]; Homo sapiens, T47D) was 72%. For the same compound, the IC50 ([2]; Homo sapiens, T47D) was 79.4 nM.
For `CC(=O)[C@H]1CC[C@H]2[C@@H]3C=CC4=CC(=O)CC[C@@]4(C)[C@@H]3[C@@H](OC(=O)NCc3cccc(F)c3)C[C@]12C` [compound 78, (3-Fluoro-benzyl)-carbamic aciddydrogesterone-11-yl ester], the Ki [1] was 398 nM.
`CC(=O)[C@H]1CC[C@H]2[C@@H]3C=CC4=CC(=O)CC[C@@]4(C)[C@@H]3[C@@H](OC(=O)Nc3ccc4cn[nH]c4c3)C[C@]12C` [compound 41, (1H-Indazol-6-yl)-carbamic aciddydrogesterone-11-yl ester] gave a Ki [1] of 316 nM, an activation at 0.1 µM ([2]; Homo sapiens, T47D) of 1% and an inhibition at 0.1 µM ([2]; Homo sapiens, T47D) of 96%. For the same compound, the IC50 ([2]; Homo sapiens, T47D) was 6.31 nM.
`CCO[C@]1(C(C)=O)CC[C@H]2[C@@H]3C=CC4=CC(=O)CC[C@@]4(C)[C@@H]3[C@@H](OC(=O)Nc3ccc4c(c3)OCO4)C[C@@]21C` [Compound No. 34, Benzo[1,3]-dioxol-5-yl-carbamic acid 17-ethoxy-dydrogesterone-11β-yl este] was tested, and the Ki [1] was 126 nM, the activation at 0.1 µM ([2]; Homo sapiens, T47D) was 95% and the inhibition at 0.1 µM ([2]; Homo sapiens, T47D) was 5%.
`COc1ccc(CNC(=O)O[C@H]2C[C@]3(C)[C@@H](C(C)=O)CC[C@H]3[C@@H]3C=CC4=CC(=O)CC[C@@]4(C)[C@@H]32)cc1` [compound 55, (4-Methoxy-benzyl)-carbamicacid dydrogesterone-11-yl ester] gave a Ki [1] of 100 nM, an activation at 0.1 µM ([2]; Homo sapiens, T47D) of 143% and an inhibition at 0.1 µM ([2]; Homo sapiens, T47D) of -79%. The EC50 ([2]; Homo sapiens, T47D, read-out: pEC50 (converted)) was 50.1 nM.
With `CC(=O)[C@H]1CC[C@H]2[C@@H]3C=CC4=CC(=O)CC[C@@]4(C)[C@@H]3C(OC(=O)Nc3ccc4cnn(C)c4c3)C[C@]12C` (stereo partly drawn) [compound 99, (1-Methyl-1H-indazol-6-yl)-carbamic acid dydrogesterone-11-yl ester] the “Human PR binding (pKi)” value [1] was 6.3, the “PS [100 nM] (% stimulation)” value ([2]; T47D cells) was 0.0% and the “PI [100 nM] (% inhibition)” value ([2]; T47D cells) was 70.0%. For the same compound, the pIC50 ([2]; T47D cells) was 7.1.
In the case of `CC(=O)[C@H]1CC[C@H]2[C@@H]3C=CC4=CC(=O)CC[C@@]4(C)[C@@H]3[C@@H](OC(=O)Nc3cccc(/C=N/O)c3)C[C@]12C` [Compound No. 32, [3-(Hydroxyimino-methyl)-phenyl]-carbamic acid dydrogesterone-11-yl ester], the Ki [1] is reported as 316 nM.
`CC(=O)[C@H]1CC[C@H]2[C@@H]3C=CC4=CC(=O)CC[C@@]4(C)[C@@H]3C(OC(=O)NCc3ccc4c(c3)OCO4)C[C@]12C` (stereo partly drawn) [compound 42, Benzo[1,3]dioxol-5-ylmethyl-carbamic acid dydrogesterone-11-yl ester] was tested, and the “Human PR binding (pKi)” value [1] was 6.8, the “PS [100 nM] (% stimulation)” value ([2]; T47D cells) was 76.0% and the pEC50 ([2]; agonistic potency, T47D cells) was 7.0. For the same compound, the “PI [100 nM] (% inhibition)” value ([2]; T47D cells) was 6.0%.
With `CC(=O)[C@H]1CC[C@H]2[C@@H]3C=CC4=CC(=O)CC[C@@]4(C)[C@@H]3[C@@H](OC(=O)Nc3cccc(OC(F)(F)F)c3)C[C@]12C` [compound 63, (3-Trifluoromethoxy-phenyl)-carbamic acid dydrogesterone-11-yl ester] the Ki [1] was ≥ 631 nM.
In the case of `CC(=O)[C@H]1CC[C@H]2[C@@H]3C=CC4=CC(=O)CC[C@@]4(C)[C@@H]3[C@@H](OC(=O)Nc3cccc(C#N)c3)C[C@]12C` [compound 71, (3-Cyano-phenyl)-carbamic aciddydrogesterone-11-yl ester], the Ki [1] is reported as ≥ 631 nM.
`CSc1cccc(NC(=O)O[C@H]2C[C@]3(C)[C@@H](C(C)=O)CC[C@H]3[C@@H]3C=CC4=CC(=O)CC[C@@]4(C)[C@@H]32)c1` [compound 92, (3-Methylsulfanyl-phenyl)-carbamic acid dydrogesterone-11-yl ester] was tested, and the Ki [1] was ≥ 631 nM, the activation at 0.1 µM ([2]; Homo sapiens, T47D) was 1% and the inhibition at 0.1 µM ([2]; Homo sapiens, T47D) was 55%. For the same compound, the IC50 ([2]; Homo sapiens, T47D) was 100 nM.
In the case of `CC(=O)[C@H]1CC[C@H]2[C@@H]3C=CC4=CC(=O)CC[C@@]4(C)[C@@H]3[C@@H](OC(=O)NCc3ccc(S(C)(=O)=O)cc3)C[C@]12C` [compound 67, (4-Methanesulfonyl-benzyl)-carbamic acid dydrogesterone-11-yl ester], the Ki [1] is reported as ≥ 631 nM.
In the case of `CC(=O)Nc1ccc(NC(=O)OC2C[C@]3(C)[C@@H](C(C)=O)CC[C@H]3[C@@H]3C=CC4=CC(=O)CC[C@@]4(C)[C@H]23)cc1` (stereo partly drawn) [compound 82, (4-Acetylamino-phenyl)-carbamicacid dydrogesterone-11-yl ester], the “Human PR binding (pKi)” value [1] is reported as 6.6, the “PS [100 nM] (% stimulation)” value ([2]; T47D cells) is reported as 0.0% and the “PI [100 nM] (% inhibition)” value ([2]; T47D cells) is reported as 40.0%.
In the case of `CC(=O)[C@H]1CC[C@H]2[C@@H]3C=CC4=CC(=O)CC[C@@]4(C)[C@@H]3[C@@H](OC(=O)Nc3ccc4c(=O)cc(C)oc4c3)C[C@]12C` [compound 77, (2-Methyl-4-oxo-4H-chromen-7-yl)-carbamic aciddydrogesterone-11-yl ester], the Ki [1] is reported as ≥ 631 nM.
